Assay results as given in patent publication US5466687A, “Arylidene-1-azacycloalkanes and arylalkyl-1-azacyclo-alkanes, their salts, medicaments containing these compounds and their use, and processes for their preparation” (priority 1992, dated 1995).

Tests used:
[1] = test system: human hepatoma cells (HEP-G2); assay: Inhibition of 14C-acetate incorporation in digitonin-precipitatable steroids in HEP-G2 cells; assay type: cell-based; settings: for percent change in 14C-acetate incorporation into sterols at 0.1 µM / percent change in 14C-acetate incorporation into sterols at 0.01 µM: Homo sapiens; for percent change in 14C-acetate incorporation into sterols at 0.1 µM: HepG2, 10^-7 mol/l; for percent change in 14C-acetate incorporation into sterols at 0.01 µM: HepG2, 10^-8 mol/l
Procedure: I. Measurement of the inhibition of ^14 C-acetate incorporation in digitonin-precipitatable steroids:
After 3 days of culture, human hepatoma cells (HEP-G2) are stimulated for 16 hours in cholesterol-free medium. The substances to be tested (dissolved in dimethyl sulphoxide, final concentration 0.1%) are added during this stimulation phase. After the addition of 200 μmol/l of 2-^14 C-acetate, the mixture is then reincubated at 37° C. for a further 2 hours.
The cells are detached and the sterol esters are hydrolyzed and, after extraction, sterols are precipitated using digitonin. The ^14 C-acetate incorporated into digitonin-precipitatable sterols is determined by scintillation measurement.
The investigation of the inhibitory action was carried out at test concentrations of 10^-7 mol/l and 10^-8 mol/l. The test results of the following compounds A to AG of the general formula I are indicated at these test concentrations by way of example: […]

[2] = test system: 2,3-epoxysqualene-lanosterol cyclase; assay: In vivo effect in the rat after oral administration: 2,3-epoxysqualene level in plasma; parameters: species or system rat (male Wistar); settings: 5 hours after administration
Procedure: II. Measurement of the in vivo effect in the rat after oral administration
The inhibition of the enzyme 2,3-epoxysqualene-lanosterol cyclase causes an increase in the 2,3-epoxy-squalene level in the liver and plasma. Therefore, the amount of 2,3-epoxysqualene formed therefore serves as a direct measure of the effectiveness in the whole animal. The determination is carried out by the following method:
The test substance suspended in 1.5% strength aqueous methylcellulose is administered via stomach tube to male Wistar rats (160-190 g body weight). 5 hours after administration, blood is obtained retroorbitally from the venous plexus. Plasma is extracted by the method of Bligh and Dyer (Canad. J. Biochem. Physiol. 37, 912, [1959]), purified by means of a precolumn and then analyzed by means of HPLC. The peaks obtained are identified and quantified by means of calibration substances. An internal standard is used to check the reproducibility of the results.
The investigations were carried out using concentrations of 0.1 and 1.0 mg/kg. The results for the above mentioned substances A to M are compiled in the following Table by way of example: […]

Compound: Cc1cc(C(=O)N2CCC(=Cc3ccc(C4=NCCO4)cc3)CC2)ccc1Cl [D, 1-(4-chloro-3-methylbenzoyl)-4-[4-(2-oxazolin-2-yl)benzylidene]piperidine]
- percent change in 14C-acetate incorporation into sterols at 0.1 µM [1]: -88%
- percent change in 14C-acetate incorporation into sterols at 0.01 µM [1]: -55%
- 2,3-Epoxysqualene concentration in plasma (rat) ([2]; 0.1 mg/kg oral): 0.78 µg/mL
- 2,3-Epoxysqualene concentration in plasma (rat) ([2]; 1.0 mg/kg oral): 3.35 µg/mL

Compound: O=C(c1c(F)c(F)c(F)c(F)c1F)N1CCC(=Cc2ccc(C3=NCCO3)cc2)CC1 [Z, 4-[4-(2-oxazolin-2-yl)benzylidene]-1-(pentafluorobenzoyl)piperidine]
- percent change in 14C-acetate incorporation into sterols at 0.1 µM [1]: -45%
- percent change in 14C-acetate incorporation into sterols at 0.01 µM [1]: -8%

Compound: O=S(=O)(c1ccc(Cl)cc1)N1CCC(=Cc2ccc(C3=NCCN3)cc2)CC1 [O, 1-(4-chlorobenzenesulphonyl)-4-[4-(2-imidazolin-2-yl)benzylidene]piperidine]
- percent change in 14C-acetate incorporation into sterols at 0.1 µM [1]: -45%
- percent change in 14C-acetate incorporation into sterols at 0.01 µM [1]: -1%

Compound: C[C@H]1CN=C(c2ccc(C=C3CCN(C(=O)c4ccc(Cl)cc4)CC3)cc2)O1 [Q, 1-(4-chlorobenzoyl)-4-[4-(S-5-methyl-2-oxazolin-2-yl)benzylidene]piperidine]
- percent change in 14C-acetate incorporation into sterols at 0.1 µM [1]: -89%
- percent change in 14C-acetate incorporation into sterols at 0.01 µM [1]: -44%

Compound: O=C(c1cccc2ccccc12)N1CCC(=Cc2ccc(C3=NCCO3)cc2)CC1 [AG, 1-(1-naphthylcarbonyl)-4-[4-(2-oxazolin-2-yl)benzylidene]piperidine]
- percent change in 14C-acetate incorporation into sterols at 0.1 µM [1]: -67%
- percent change in 14C-acetate incorporation into sterols at 0.01 µM [1]: -30%

Compound: CC(C)(C)c1ccc(C(=O)N2CCC(=Cc3ccc(C4=NCCO4)cc3)CC2)cc1 [AB, 1-(4-tert.butylbenzoyl)-4-[4-(2-oxazolin-2-yl)benzylidene]piperidine]
- percent change in 14C-acetate incorporation into sterols at 0.1 µM [1]: -18%
- percent change in 14C-acetate incorporation into sterols at 0.01 µM [1]: -6%

Compound: Cc1cc(C=C2CCN(C(=O)c3ccc(Cl)cc3)CC2)ccc1C1=NCCO1 [M, 1-(4-chlorobenzoyl)-4-[3-methyl-4-(2-oxazolin-2-yl)benzylidene]piperidine]
- percent change in 14C-acetate incorporation into sterols at 0.1 µM [1]: -76%
- percent change in 14C-acetate incorporation into sterols at 0.01 µM [1]: -32%
- 2,3-Epoxysqualene concentration in plasma (rat) ([2]; 0.1 mg/kg oral): 0.78 µg/mL
- 2,3-Epoxysqualene concentration in plasma (rat) ([2]; 1.0 mg/kg oral): 6.53 µg/mL

Compound: O=S(=O)(c1ccc(Cl)cc1)N1CCC(=Cc2ccc(C3=NCCO3)cc2)CC1 [N, 1-(4-chlorobenzenesulphonyl)-4-[4-(2-oxazolin-2-yl)benzylidene]piperidine]
- percent change in 14C-acetate incorporation into sterols at 0.1 µM [1]: -86%
- percent change in 14C-acetate incorporation into sterols at 0.01 µM [1]: -63%

Compound: O=C(c1ccc(Cl)cc1)N1CCC(=Cc2ccc(C3=NC(CO)CO3)cc2)CC1 (centres unmarked) [U, 1-(4-chlorobenzoyl)-4-[4-(4-hydroxymethyl-2-oxazolin-2-yl)benzylidene]piperidine]
- percent change in 14C-acetate incorporation into sterols at 0.1 µM [1]: -60%
- percent change in 14C-acetate incorporation into sterols at 0.01 µM [1]: -21%

Compound: CC(=C1CCN(C(=O)c2ccc(Cl)cc2)CC1)c1ccc(C2=NCCO2)cc1 [W, 1-(4-chlorobenzoyl)-4-[4-(2-oxazolin-2-yl)-α-methylbenzylidene]piperidine]
- percent change in 14C-acetate incorporation into sterols at 0.1 µM [1]: -77%
- percent change in 14C-acetate incorporation into sterols at 0.01 µM [1]: -35%

Compound: N#Cc1ccc(C(=O)N2CCC(=Cc3ccc(C4=NCCO4)cc3)CC2)cc1 [Y, 1-(4-cyanobenzoyl)-4-[4-(2-oxazolin-2-yl)benzylidene]piperidine]
- percent change in 14C-acetate incorporation into sterols at 0.1 µM [1]: -74%
- percent change in 14C-acetate incorporation into sterols at 0.01 µM [1]: -51%

Compound: O=C(c1ccc(Br)cc1)N1CCC(=Cc2ccc(C3=NCCO3)cc2)CC1 [AD, 1-(4-bromobenzoyl)-4-[4-(2-oxazolin-2-yl)benzylidene]piperidine]
- percent change in 14C-acetate incorporation into sterols at 0.1 µM [1]: -85%
- percent change in 14C-acetate incorporation into sterols at 0.01 µM [1]: -44%

Compound: O=C(c1ccccc1)N1CCC(=Cc2ccc(C3=NCCO3)cc2)CC1 [AA, 1-benzoyl-4-[4-(2-oxazolin-2-yl)benzylidene]piperidine]
- percent change in 14C-acetate incorporation into sterols at 0.1 µM [1]: -70%
- percent change in 14C-acetate incorporation into sterols at 0.01 µM [1]: -25%

Compound: O=C(c1ccc(Cl)cc1)N1CCC(=Cc2ccc(C3=NCCCO3)cc2)CC1 [B, 1-(4-chlorobenzoyl)-4-[4-(4,5-dihydro-6H-oxazin-2-yl)benzylidene]piperidine]
- percent change in 14C-acetate incorporation into sterols at 0.1 µM [1]: -77%
- percent change in 14C-acetate incorporation into sterols at 0.01 µM [1]: -51%
- 2,3-Epoxysqualene concentration in plasma (rat) ([2]; 0.1 mg/kg oral): 0.46 µg/mL
- 2,3-Epoxysqualene concentration in plasma (rat) ([2]; 1.0 mg/kg oral): 3.14 µg/mL

Compound: O=C(Cc1ccc(Cl)cc1)N1CCC(=Cc2ccc(C3=NCCO3)cc2)CC1 [AF, 1-(4-chlorophenylacetyl)-4-[4-(2-oxazolin-2-yl)benzylidene]piperidine]
- percent change in 14C-acetate incorporation into sterols at 0.1 µM [1]: -63%
- percent change in 14C-acetate incorporation into sterols at 0.01 µM [1]: -22%

Compound: O=C(c1ccc(Cl)cc1)N1CCC(=Cc2ccc(C3=NCCO3)cc2)C1 [K, 1-(4-chlorobenzoyl)-3-[4-(2-oxazolin-2-yl)benzylidene]pyrrolidine]
- percent change in 14C-acetate incorporation into sterols at 0.1 µM [1]: -90%
- percent change in 14C-acetate incorporation into sterols at 0.01 µM [1]: -56%
- 2,3-Epoxysqualene concentration in plasma (rat) ([2]; 0.1 mg/kg oral): 0.0 µg/mL
- 2,3-Epoxysqualene concentration in plasma (rat) ([2]; 1.0 mg/kg oral): 4.14 µg/mL

Compound: O=C(c1ccc(Cl)s1)N1CCC(=Cc2ccc(C3=NCCO3)cc2)CC1 [X, 1-(5-chloro-2-thienoyl)-4-[4-(2-oxazolin-2-yl)benzylidene]piperidine]
- inhibition of 14C-acetate incorporation ([1]; 10^-7 mol/l): -84%
- inhibition of 14C-acetate incorporation ([1]; 10^-8 mol/l): -35%

Compound: COc1ccc(C(=O)N2CCC(=Cc3ccc(C4=NCCO4)cc3)CC2)cc1 [AC, 1-(4-methoxybenzoyl)-4-[4-(2-oxazolin-2-yl)benzylidene]piperidine]
- percent change in 14C-acetate incorporation into sterols at 0.1 µM [1]: -25%
- percent change in 14C-acetate incorporation into sterols at 0.01 µM [1]: -16%

Compound: O=C(c1ccc(F)cc1)N1CCC(=Cc2ccc(C3=NCCO3)cc2)CC1 [E, 1-(4-fluorobenzoyl)-4-[4-(2-oxazolin-2-yl)benzylidene]piperidine]
- percent change in 14C-acetate incorporation into sterols at 0.1 µM [1]: -81%
- percent change in 14C-acetate incorporation into sterols at 0.01 µM [1]: -36%
- 2,3-Epoxysqualene concentration in plasma (rat) ([2]; 0.1 mg/kg oral): 0.67 µg/mL
- 2,3-Epoxysqualene concentration in plasma (rat) ([2]; 1.0 mg/kg oral): 6.09 µg/mL

Compound: O=C(c1ccc(C(F)(F)F)cc1)N1CCC(=Cc2ccc(C3=NCCO3)cc2)CC1 [C, 4-[4-(2-oxazolin-2-yl)benzylidene]-1-(4-trifluoromethylbenzoyl)piperidine]
- percent change in 14C-acetate incorporation into sterols at 0.1 µM [1]: -90%
- percent change in 14C-acetate incorporation into sterols at 0.01 µM [1]: -74%
- 2,3-Epoxysqualene concentration in plasma (rat) ([2]; 0.1 mg/kg oral): 0.91 µg/mL
- 2,3-Epoxysqualene concentration in plasma (rat) ([2]; 1.0 mg/kg oral): 5.90 µg/mL

Compound: O=C(c1ccc(Cl)s1)N1CCC(=Cc2ccc(C3=NCCO3)cc2)CC1 [F, 1-(5-chloro-2-thienoyl)-4-[4-(2-oxazolin-2-yl)benzylidene]piperidine]
- inhibition of 14C-acetate incorporation ([1]; 10^-8 mol/l): -55%
- percent change in 14C-acetate incorporation into sterols at 0.1 µM [1]: -84%
- 2,3-Epoxysqualene concentration in plasma (rat) ([2]; 0.1 mg/kg oral): 0.00 µg/mL
- 2,3-Epoxysqualene concentration in plasma (rat) ([2]; 1.0 mg/kg oral): 2.00 µg/mL

Compound: CCN(CC)CC1CN=C(c2ccc(C=C3CCN(C(=O)c4ccc(Cl)cc4)CC3)cc2)O1 (centres unmarked) [T, 1-(4-chlorobenzoyl)-4-[4-(5-diethylaminomethyl-2-oxazolin-2-yl)benzylidene]piperidine]
- percent change in 14C-acetate incorporation into sterols at 0.1 µM [1]: -57%
- percent change in 14C-acetate incorporation into sterols at 0.01 µM [1]: -29%

Compound: O=C(c1ccc([N+](=O)[O-])cc1)N1CCC(=Cc2ccc(C3=NCCO3)cc2)CC1 [AE, 1-(4-nitrobenzoyl)-4-[4-(2-oxazolin-2-yl)benzylidene]piperidine]
- percent change in 14C-acetate incorporation into sterols at 0.1 µM [1]: -71%
- percent change in 14C-acetate incorporation into sterols at 0.01 µM [1]: -22%

Compound: C[C@@H]1COC(c2ccc(C=C3CCN(C(=O)c4ccc(Cl)cc4)CC3)cc2)=N1 [R, 1-(4-chlorobenzoyl)-4-[4-(R-4-methyl-2-oxazolin-2-yl)benzylidene]piperidine]
- percent change in 14C-acetate incorporation into sterols at 0.1 µM [1]: -88%
- percent change in 14C-acetate incorporation into sterols at 0.01 µM [1]: -57%

Compound: O=C(c1ccc(Cl)cc1)N1CCC(Cc2ccc(C3=NCCS3)cc2)CC1 [P, 1-(4-chlorobenzoyl)-4-[4-(2-thiazolin-2-yl)benzyl]piperidine]
- percent change in 14C-acetate incorporation into sterols at 0.1 µM [1]: -14%
- percent change in 14C-acetate incorporation into sterols at 0.01 µM [1]: -5%

Compound: O=C(c1ccc(Cl)cc1)N1CCC(=Cc2ccc(C3=N[C@@H](Cc4ccccc4)CO3)cc2)CC1 [V, 4-[4-(S-4-benzyl-2-oxazolin-2-yl)benzylidene]-1-(4-chlorobenzoyl)piperidine]
- percent change in 14C-acetate incorporation into sterols at 0.1 µM [1]: -29%
- percent change in 14C-acetate incorporation into sterols at 0.01 µM [1]: -15%

Compound: O=C(c1ccc(Cl)cc1)N1CCC(=Cc2ccc(C3=NCC(c4ccccc4)O3)cc2)CC1 (centres unmarked) [S, 1-(4-chlorobenzoyl)-4-[4-(5-phenyl-2-oxazolin-2-yl)benzylidene]piperidine]
- percent change in 14C-acetate incorporation into sterols at 0.1 µM [1]: -24%
- percent change in 14C-acetate incorporation into sterols at 0.01 µM [1]: 0%
